According to a melting point compilation (Tetko et al.):

Row | melting point [°C] | SMILES
1 | 47 to 58 | O=C(CCl)c1ccc2c(c1)CCC2
2 | 76 to 78 | CCC1(C)CCNC(=O)CC1 (stereo unspecified)
3 | 115 to 117 | Cn1ccnc1C(O)(CCN)C(F)(F)F (stereo unspecified)
4 | 144 to 146 | c1c[nH]c(C2CCCCN2)n1 (stereo unspecified)
5 | 308 to 310 | O=Cc1cc2ccccc2nc1O
6 | 119 to 121 | Nc1ccc2c(c1)C(=O)NCC2
7 | 176 to 178 | Nc1cccc(-n2ccnc2S)c1
8 | 69 to 71 | NC1CCCOc2ccccc21 (stereo unspecified)
9 | 69 to 71 | CC1CCN(C(=O)c2ccc(Cl)nc2)CC1
10 | 149 to 151 | Cc1oc2nc[nH]c(=O)c2c1C(=O)O
11 | 119 to 121 | Nc1cccc2c1CN(c1nccs1)C2
12 | 83 to 85 | O=C(c1ccc(F)cc1)c1ccccn1
13 | 149 to 151 | COc1ccccc1C1(C(=O)O)CCC1
14 | 131 to 133 | COC(=O)NC1(C(=O)O)CCCC1
15 | 46 to 48 | CCOC(=O)c1cccnc1NC
16 | 83 to 85 | Cc1cccn2c(C=O)cnc12
17 | 125 to 127 | Nc1cccc(Oc2ncccn2)c1

Row | melting point [°C] | SMILES
18 | 209 to 211 | Nc1ccc2c(N)n[nH]c2c1
19 | 38 to 40 | O=C1CCCC1Cc1ccccc1[N+](=O)[O-] (stereo unspecified)
20 | 126 to 128 | OCCn1nccc1C1CCNCC1
21 | 126 to 128 | Nc1ccc2c(c1)C(=O)CCC2
22 | 99 to 101 | O=C(CN1CCNCC1)NC1CCCCC1
23 | 81 to 83 | CC1(C)CCC(CC(=O)O)c2ccccc21 (stereo unspecified)
24 | 219 to 221 | NC(=O)C1CC(C(=O)O)=NN1c1ccc(F)cc1 (stereo unspecified)
25 | 59 to 61 | CC1CCCC(O)(CN)C1 (stereo unspecified)
26 | 121 to 123 | Cn1cc(S(N)(=O)=O)cn1
27 | 117 to 119 | Clc1nncc2ccoc12
28 | 111 to 113 | O=C(O)c1sccc1S(=O)(=O)N1CCCCC1
29 | 141 to 143 | COc1ccc2c(c1)CCC(=O)N2
30 | 114 to 116 | Cc1ccc(C(=O)NC2CC2)cc1N
31 | 259 to 261 | O=C(O)Cc1csc2nccn12
32 | 127 to 129 | O=C1NC(=O)N(CCC2=CCCCC2)C1=O
33 | 99 to 101 | C#Cc1cnc2ccccc2n1
34 | 129 to 131 | Nc1ncn(C2CCCCC2)n1

Second part, the compound before the results:

Row | SMILES | melting point [°C]
35 | O=C(O)c1csc(-c2ccsc2)n1 | 165 to 167
36 | Cn1ncc(Br)c(Br)c1=O | 114 to 116
37 | NCC(=O)Nc1ccccc1[N+](=O)[O-] | 81 to 83
38 | O=C(O)c1cc([N+](=O)[O-])ccc1Oc1ccccc1 | 167 to 169
39 | O=C(O)c1cnoc1 | 99 to 101
40 | Oc1ccc2cncnc2c1 | 216 to 218
41 | Nc1cccc(S(=O)(=O)Nc2ccccc2Cl)c1 | 110 to 112
42 | Nc1oc2ccc(F)cc2c(=O)c1C=O | 251 to 253
43 | Cc1ccc(CNC(=O)CC#N)cc1 | 127 to 129
44 | O=C(O)CSCc1ccc(Br)cc1F | 57 to 59
45 | COC(=O)CCNc1ccc(F)cc1[N+](=O)[O-] | 76 to 78
46 | O=C(O)c1cc(OCC(F)(F)F)ccc1[N+](=O)[O-] | 156 to 158
47 | Cn1c(-c2ccccc2)cnc1S | 180 to 182
48 | CC1CC(C(=O)O)CC(C)(C)C1 (stereo unspecified) | 39 to 41
49 | O=C(O)/C=C/c1ccc2c(c1)OCCO2 | 165 to 169
50 | CC(C)C(NCC(F)(F)F)C(=O)O (stereo unspecified) | 128 to 130
51 | O=C(CCl)N1c2ccccc2CCc2ccccc21 | 96 to 98
52 | Cc1cc(=O)[nH][nH]1 | 223 to 225
53 | COCC(=O)Nc1cccc(N)c1 | 82 to 84
54 | CC(C)(C)OC(=O)CNc1ccc2c(c1)OCO2 | 70 to 72
55 | CC(=O)C(C#N)c1c(Cl)cccc1Cl (stereo unspecified) | 49 to 51
56 | O=C(O)CCc1nncn1-c1ccccc1 | 202 to 204
57 | Nc1ccc(S(=O)(=O)Nc2ccc(Cl)cc2)cc1N | 146 to 150
58 | CC1(C)C(=O)NC(=O)N1CC#N | 147 to 149

Row | SMILES | melting point [°C]
59 | Cc1nn(-c2ccccc2F)c(C)c1CC(=O)O | 174 to 176
60 | Cc1c(C(=O)O)sc2nc(Cc3ccccc3)[nH]c(=O)c12 | 342 to 344
61 | Cn1cnc(S(=O)(=O)NCC(=O)O)c1 | 211 to 213
62 | O=C(Nc1cccnc1)c1ccc(O)cc1 | 273 to 275
63 | Nc1ccc(-c2nc3ccccc3s2)cc1N | 165 to 169
64 | CCN1N=C(c2ccccc2)CC1=O | 140 to 142
65 | Cc1nc(Cl)c(Cl)nc1C | 77 to 79
66 | Nc1nnc(Cc2cccc(Cl)c2)s1 | 196 to 198
67 | Cc1cc(N)n(CCC#N)n1 | 104 to 106
68 | c1ccc(CCc2nnn[nH]2)cc1 | 96 to 98
69 | Nc1ccc(NC(=O)c2ccccc2I)cc1 | 143 to 145
70 | C#CCNC(=O)Nc1ccc(Cl)cc1 | 211 to 213
71 | O=Cc1ccc(-c2ccc(Cl)c(Cl)c2)s1 | 126 to 128
72 | Sc1ccc2ccccc2n1 | 173 to 176
73 | CCOc1ccc2cc(C(=O)O)[nH]c2c1 | 168 to 170
74 | CCOC(CC(N)=O)OCC | 51 to 53
75 | O=C(O)c1ccc(NS(=O)(=O)C(F)(F)F)cc1 | 226 to 228
76 | N#CCCc1c(Cl)cccc1Cl | 40 to 42
77 | Cc1ccc(F)c(N)c1C(=O)O | 114 to 116
78 | Cc1ccc(C(=O)N=[N+]=[N-])o1 | 33 to 35
79 | NC(=O)c1ccc(-c2csc(N)n2)cc1 | 250 to 252
80 | O=C(Nc1ccccn1)c1ccc(O)cc1 | 176 to 178
81 | CCC1(c2ccccc2)NC(=O)NC1=O (stereo unspecified) | 203 to 205
82 | CCN(C(=O)N1CCC(C(=O)O)CC1)C(C)C | 107 to 109

Row | SMILES | melting point [°C]
83 | CC(=O)Nc1ccc(N=C=S)cc1 | 199 to 201
84 | NS(=O)(=O)c1ccc(-c2cccc(C(F)(F)F)c2)c(C(=O)O)c1 | 181 to 183
85 | CN(C=O)c1ccc(C(=O)CCl)cc1 | 96 to 98
86 | O=C(O)c1ccc(NS(=O)(=O)c2ccc(Br)s2)cc1 | 254 to 256
87 | CC(=O)c1ccc(N(C)C)cc1O | 120 to 122
88 | CC(C)(C)OC(=O)N1CCN(c2nc(N)ns2)CC1 | 196 to 198
89 | ClCc1csc(COc2ccc(Cl)cc2)n1 | 75 to 77
90 | Cc1ccc(OCc2ccc(C(=O)O)o2)cc1 | 204 to 206
91 | CC(C)(C)Sc1ccc(C#N)nc1 | 60 to 62
92 | N#CCOc1ccc(CBr)cc1 | 74 to 76
93 | O=C(O)C(Cc1ccccc1)n1cnnn1 (stereo unspecified) | 162 to 164
94 | CC(C)N1C(=O)NC2(CCNC2)C1=O (stereo unspecified) | 98 to 100
95 | Cc1nc(N)sc1Cl | 100 to 102
96 | Cc1ccc(C(C)C)c(OCCC(=O)O)c1 | 93 to 95
97 | Nc1cccc(NC(=O)c2cccc(C(F)(F)F)c2)c1 | 134 to 136
98 | CCOC(=O)c1c(NC(N)=S)sc(C)c1C | 207 to 209
99 | NS(=O)(=O)CCc1ccc([N+](=O)[O-])cc1 | 118 to 120
100 | O=c1[nH]c2ccc(S(=O)(=O)Cl)cc2[nH]c1=O | 304 to 306
101 | N#CCC(=O)N1CCS(=O)(=O)CC1 | 157 to 159
102 | CCOC(=O)c1noc(C)n1 | 32 to 34
103 | NC(Cc1ccc2c(c1)OCO2)C(=O)O (stereo unspecified) | 249 to 251
104 | NS(=O)(=O)c1cc([N+](=O)[O-])ccc1Cl | 155 to 157
105 | Cc1ccc(-c2nc(CCl)co2)cc1 | 97 to 99
106 | N#CCc1cn(-c2ccccc2)nc1-c1ccc(Cl)cc1 | 126 to 128
